# Species: Rattus norvegicus
# Experiment: DrugMatrix - Regimen: Daily Repeat
# Assay type: toxicity, organism-based, Sprague-Dawley
# Parameters: regimen Daily Repeat, gender Male, age 6-8 weeks
# Settings: in vivo, po, 2000 mg/kg, route oral GAVAGE, dose level High, vehicle 100 % WATER; for ABSOLUTE BASOPHIL / ABSOLUTE EOSINOPHIL / ABSOLUTE LYMPHOCYTE / ABSOLUTE MONOCYTE / ABSOLUTE SEGMENTED NEUTROPHIL / BASOPHIL / EOSINOPHIL / ERYTHROCYTE COUNT / HEMATOCRIT / HEMOGLOBIN / LEUKOCYTE COUNT / LYMPHOCYTE / MEAN CORPUSCULAR HEMOGLOBIN / MEAN CORPUSCULAR HEMOGLOBIN CONCENTRATION / MEAN CORPUSCULAR VOLUME / MONOCYTE / NEUTROPHIL / NUCLEATED RED BLOOD CELLS / PLATELET COUNT: tissue Blood; for ALANINE AMINOTRANSFERASE / ALBUMIN / ALKALINE PHOSPHATASE / ASPARTATE AMINOTRANSFERASE / BLOOD UREA NITROGEN / CARBON DIOXIDE / CHLORIDE / CHOLESTEROL / CREATINE PHOSPHOKINASE / CREATININE / GLUCOSE / LACTATE DEHYDROGENASE / LIPASE / PHOSPHORUS / POTASSIUM / SODIUM / TOTAL BILIRUBIN / TOTAL PROTEIN / URIC ACID: tissue Plasma
smiles,measurement,setting,value
O=C1O[C@H]([C@@H](O)CO)C(O)=C1O [ASCORBIC ACID],ABSOLUTE BASOPHIL,"72 h, time 3 day",0 CELLS/uL
same,ABSOLUTE EOSINOPHIL,"72 h, time 3 day",0 CELLS/uL
same,ABSOLUTE LYMPHOCYTE,"72 h, time 3 day",11911.67 CELLS/uL
same,ABSOLUTE MONOCYTE,"72 h, time 3 day",70.67 CELLS/uL
same,ABSOLUTE SEGMENTED NEUTROPHIL,"72 h, time 3 day",1384.33 CELLS/uL
same,BASOPHIL,"72 h, time 3 day",0%
same,EOSINOPHIL,"72 h, time 3 day",0%
same,ERYTHROCYTE COUNT,"72 h, time 3 day",5.18 x10E6/uL
same,HEMATOCRIT,"72 h, time 3 day",32.77%
same,HEMOGLOBIN,"72 h, time 3 day",13.1 G/DL
same,LEUKOCYTE COUNT,"72 h, time 3 day",13.37 x10E3/uL
same,LYMPHOCYTE,"72 h, time 3 day",89.33%
same,MEAN CORPUSCULAR HEMOGLOBIN,"72 h, time 3 day",25.27 pg
same,MEAN CORPUSCULAR HEMOGLOBIN CONCENTRATION,"72 h, time 3 day",39.97 G/DL
same,MEAN CORPUSCULAR VOLUME,"72 h, time 3 day",63.27 fL
same,MONOCYTE,"72 h, time 3 day",0.67%
same,NEUTROPHIL,"72 h, time 3 day",10%
same,NUCLEATED RED BLOOD CELLS,"72 h, time 3 day",0 /100WBC
same,PLATELET COUNT,"72 h, time 3 day",1123.33 x10E3/uL
same,ALANINE AMINOTRANSFERASE,"72 h, time 3 day",37.67 u/L
same,ALBUMIN,"72 h, time 3 day",4.03 G/DL
same,ALKALINE PHOSPHATASE,"72 h, time 3 day",334 u/L
same,ASPARTATE AMINOTRANSFERASE,"72 h, time 3 day",76.33 u/L
same,BLOOD UREA NITROGEN,"72 h, time 3 day",15.33 mg/dL
same,CARBON DIOXIDE,"72 h, time 3 day",32.33 mmol/L
same,CHLORIDE,"72 h, time 3 day",101.67 MEQ/L
same,CHOLESTEROL,"72 h, time 3 day",63.67 mg/dL
same,CREATINE PHOSPHOKINASE,"72 h, time 3 day",214.33 u/L
same,CREATININE,"72 h, time 3 day",0.17 mg/dL
same,GLUCOSE,"72 h, time 3 day",146.33 mg/dL
same,LACTATE DEHYDROGENASE,"72 h, time 3 day",137.67 u/L
same,LIPASE,"72 h, time 3 day",9 u/L
same,PHOSPHORUS,"72 h, time 3 day",11.5 mg/dL
same,POTASSIUM,"72 h, time 3 day",6.65 MEQ/L
same,SODIUM,"72 h, time 3 day",144.3 MEQ/L
same,TOTAL BILIRUBIN,"72 h, time 3 day",0.2 mg/dL
same,TOTAL PROTEIN,"72 h, time 3 day",5.63 G/DL
same,URIC ACID,"72 h, time 3 day",1.4 mg/dL
same,ABSOLUTE BASOPHIL,"120 h, time 5 day",0 CELLS/uL
same,ABSOLUTE EOSINOPHIL,"120 h, time 5 day",0 CELLS/uL
same,ABSOLUTE LYMPHOCYTE,"120 h, time 5 day",16297.33 CELLS/uL
same,ABSOLUTE MONOCYTE,"120 h, time 5 day",372.33 CELLS/uL
same,ABSOLUTE SEGMENTED NEUTROPHIL,"120 h, time 5 day",863.67 CELLS/uL
same,BASOPHIL,"120 h, time 5 day",0%
same,EOSINOPHIL,"120 h, time 5 day",0%
same,ERYTHROCYTE COUNT,"120 h, time 5 day",5.49 x10E6/uL
same,HEMATOCRIT,"120 h, time 5 day",35.9%
same,HEMOGLOBIN,"120 h, time 5 day",14.2 G/DL
same,LEUKOCYTE COUNT,"120 h, time 5 day",17.53 x10E3/uL
same,LYMPHOCYTE,"120 h, time 5 day",93.33%
same,MEAN CORPUSCULAR HEMOGLOBIN,"120 h, time 5 day",25.9 pg
same,MEAN CORPUSCULAR HEMOGLOBIN CONCENTRATION,"120 h, time 5 day",39.53 G/DL
same,MEAN CORPUSCULAR VOLUME,"120 h, time 5 day",65.47 fL
same,MONOCYTE,"120 h, time 5 day",2%
same,NEUTROPHIL,"120 h, time 5 day",4.67%
same,NUCLEATED RED BLOOD CELLS,"120 h, time 5 day",0.33 /100WBC
same,PLATELET COUNT,"120 h, time 5 day",1195.67 x10E3/uL
same,ALANINE AMINOTRANSFERASE,"120 h, time 5 day",48 u/L
same,ALBUMIN,"120 h, time 5 day",4.23 G/DL
same,ALKALINE PHOSPHATASE,"120 h, time 5 day",355.33 u/L
same,ASPARTATE AMINOTRANSFERASE,"120 h, time 5 day",75.33 u/L
same,BLOOD UREA NITROGEN,"120 h, time 5 day",14.67 mg/dL
same,CARBON DIOXIDE,"120 h, time 5 day",33.67 mmol/L
same,CHLORIDE,"120 h, time 5 day",99.67 MEQ/L
same,CHOLESTEROL,"120 h, time 5 day",70.67 mg/dL
same,CREATINE PHOSPHOKINASE,"120 h, time 5 day",260 u/L
same,CREATININE,"120 h, time 5 day",0.26 mg/dL
same,GLUCOSE,"120 h, time 5 day",135.67 mg/dL
same,LACTATE DEHYDROGENASE,"120 h, time 5 day",215 u/L
same,LIPASE,"120 h, time 5 day",10.67 u/L
same,PHOSPHORUS,"120 h, time 5 day",11.83 mg/dL
same,POTASSIUM,"120 h, time 5 day",6.61 MEQ/L
same,SODIUM,"120 h, time 5 day",144.07 MEQ/L
same,TOTAL BILIRUBIN,"120 h, time 5 day",0.27 mg/dL
same,TOTAL PROTEIN,"120 h, time 5 day",6.03 G/DL
same,URIC ACID,"120 h, time 5 day",1.37 mg/dL

# Source: ChEMBL document CHEMBL3885881, “DrugMatrix”
